Several values for one entry are separate records, joined by “and”; a condition that tells them apart may be missing. Equal entries are not always repeated.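 Grown in 96-well plates, cells were treated for 48 hours with each compound at five concentrations. Insufficient inhibition: endpoint recorded as highest concentration tested. GI50 is the concentration that inhibits growth by half. TGI is the concentration that stops growth completely.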
How the values were obtained:
Assay in all cases: inhibition of tumour cell growth, NCI panel, 48 h
DLD-1 colon = system: DLD-1 colon
DMS 114 small cell lung = system: DMS 114 small cell lung
DMS 273 small cell lung = system: DMS 273 small cell lung
HL-60(TB) leukemia = system: HL-60(TB) leukemia
HOP-18 NSCLC = system: HOP-18 NSCLC
HOP-92 NSCLC = system: HOP-92 NSCLC
K-562 leukemia = system: K-562 leukemia
U251 CNS = system: U251 CNS
SF-539 CNS = system: SF-539 CNS
T-47D breast = system: T-47D breast

| SMILES | TGI (DLD-1 colon) [µM] | TGI (DMS 114 small cell lung) | TGI (DMS 273 small cell lung) [µM] | TGI (HL-60(TB) leukemia) | TGI (HOP-18 NSCLC) | TGI (HOP-92 NSCLC) | TGI (K-562 leukemia) | TGI (U251 CNS) [µM] | TGI (SF-539 CNS) | GI50 (DLD-1 colon) [µM] | GI50 (DMS 114 small cell lung) [µM] | GI50 (DMS 273 small cell lung) [µM] | GI50 (HL-60(TB) leukemia) [µM] | GI50 (HOP-92 NSCLC) [µM] | GI50 (K-562 leukemia) [µM] | GI50 (SF-539 CNS) [µM] | TGI (T-47D breast) | GI50 (HOP-18 NSCLC) [µM] | GI50 (T-47D breast) [µM] | GI50 (U251 CNS) [µM] |
| --- | --- | --- | --- | --- | --- | --- | --- | --- | --- | --- | --- | --- | --- | --- | --- | --- | --- | --- | --- | --- |
| CCCCCCCC[N+](C)(C)Cc1ccc(C[N+](C)(C)CCCCCCCC)cc1 | > 100 | > 100 µM | 36.5 | 97.6 µM | > 100 µM | 88.1 µM | > 100 µM | > 100 | – | – | – | – | – | – | – | – | – | – | – | – |
| C=C(C)C1CC=C(C(=O)O)CC1 (stereo not given) | > 5000 | > 5000 µM | > 5000 | 2630 µM | – | 3930 µM | > 5000 µM | 2630 | 2510 µM | – | – | – | – | – | – | – | – | – | – | – |
| Cc1nc(NC(=S)NC(=O)c2ccc(Cl)c(Cl)c2)sc1C(=O)/C=C/c1ccccc1[N+](=O)[O-] | > 100 | – | 48.3 | 45.8 µM | 41.7 µM | 24.2 µM | 42.2 µM | 32.9 | 40.5 µM | – | – | – | – | – | – | – | – | – | – | – |
| O=C1c2ccccc2C(=O)N1/N=C\c1ccc(Br)cc1 | > 100 | > 100 µM | > 100 | > 100 µM | > 10 µM | > 100 µM | > 100 µM | > 100 | > 100 µM | > 100 | > 100 | > 100 | > 100 | > 100 | > 100 | > 100 | – | – | – | – |
| N=c1nc(N)c2cc3c(N)nc(=N)c3cc12 | > 100 | 23.8 µM | > 100 | 6.78 µM | 41.5 µM | 25.6 µM | 9.57 µM | 43.5 | 31.5 µM | – | – | – | – | – | – | – | 47.8 µM | – | – | – |
| O=C(O)/C(Cl)=C(\Cl)Nc1cccc(C(F)(F)F)c1 | > 100 | > 100 µM | > 100 | > 100 µM | > 100 µM | 22.3 µM | > 100 µM | > 100 | – | – | – | – | – | – | – | – | – | – | – | – |
| CC1(C)CCC(=O)c2c(O)ccc(O)c21 | – | – | > 100 | – | – | 76.9 µM | > 100 µM | > 100 | > 100 µM | – | – | – | – | – | – | – | – | – | – | – |
| COc1ccc2cc(C(=O)c3ccccc3C(=O)O)ccc2c1 | > 100 | > 100 µM | > 100 | > 100 µM | > 100 µM | – | > 100 µM | > 100 | – | – | – | – | – | – | – | – | – | – | – | – |
| CC1=CC2=C(OCO1)C(=O)c1ccccc1C2=O | 81.9 | 12.1 µM | 26.7 | 23.1 µM | 27.1 µM | 23 µM | 40.3 µM | 13.3 | 12.8 µM | – | – | – | – | – | – | – | 7.47 µM | – | – | – |
| c1cncc(C2c3[nH]c4ccccc4c3CCN2CCCN2CCCCC2)c1 (stereo not given) | > 100 | > 100 µM | > 100 | > 100 µM | – | > 100 µM | > 100 µM | > 100 | > 100 µM | – | – | – | – | – | – | – | – | – | – | – |
| CCOC(=O)C12CCCC1(O)N(NC(=O)c1cccc(Cl)c1)C(C)=C2C(=O)OC (stereo not given) | > 100 | > 100 µM | > 100 | > 100 µM | – | – | > 100 µM | > 100 | > 100 µM | – | – | – | – | – | – | – | – | – | – | – |
| OCCN1CCN(CCO)Cc2ccccc2OCCOc2ccccc2C1 | > 100 | > 100 µM | > 100 | – | – | > 100 µM | > 100 µM | > 100 | > 100 µM | – | – | – | – | – | – | – | – | – | – | – |
| CCCC(OCC)(OCC)OCC | > 100 | > 100 µM | > 100 | > 100 µM | > 100 µM | > 100 µM | > 100 µM | > 100 | > 100 µM | – | – | – | – | – | – | – | – | – | – | – |
| CCOC(=O)/C(=C/c1ccc(OC)c(OC)c1)C(=O)c1ccccc1 | 34.5 | 32 µM | – | – | – | – | > 100 µM | 65 | – | – | – | – | – | – | – | – | – | – | – | – |
| COC(=O)C1=CC(O)CCC1c1ccc(OC)cc1 (stereo not given) | > 100 | > 100 µM | > 100 | > 100 µM | > 100 µM | > 100 µM | > 100 µM | > 100 | > 100 µM | – | – | – | – | – | – | – | – | – | – | – |
| Cc1cc(C)c(C(=O)O)c(N)c1O | > 100 | > 100 µM | > 100 | > 100 µM | – | – | > 100 µM | > 100 | – | – | – | – | – | – | – | – | – | – | – | – |
| CSc1nc(NC2OCC(OC(C)=O)C(OC(C)=O)C2OC(C)=O)c(N=CC=Nc2c(NC3OCC(OC(C)=O)C(OC(C)=O)C3OC(C)=O)nc(SC)n(C)c2=O)c(=O)n1C (stereo not given) | > 100 | > 100 µM | > 100 | > 100 µM | > 100 µM | > 100 µM | > 100 µM | > 100 | > 100 µM | – | – | – | – | – | – | – | – | – | – | – |
| COc1ccc2[nH]c3c4c(c5cc(C(C)(C)C)ccc5c3c2c1)C(=O)N(c1ccccc1)C4=O | 30.3 | > 100 µM | – | > 100 µM | > 100 µM | – | > 100 µM | > 100 | 49 µM | – | – | – | – | – | – | – | – | – | – | – |
| COc1cc(C(=O)C/C(CCC(=O)Nc2ccccc2[N+](=O)[O-])=N\NC(=O)C(N)=O)ccc1O | > 100 | > 100 µM | > 100 | > 100 µM | > 100 µM | > 100 µM | > 100 µM | > 100 | > 100 µM | – | – | – | – | – | – | – | – | – | – | – |
| CC(=O)CC(=O)N(CCN(C(=O)CC(C)=O)c1ccccc1)c1ccccc1 | > 100 | > 100 µM | – | > 100 µM | > 100 µM | > 100 µM | > 100 µM | > 100 | > 100 µM | – | – | – | – | – | – | – | – | – | – | – |
| C=C(C)C(=O)NC(N)=NC#N | 261 | > 82.7 µM and 136 µM | 270 | 42.6 µM and 50.3 µM | > 57.4 µM and 240 µM | 33.7 µM and 63.1 µM | 51.5 µM and 58.5 µM | 260 | 73.3 µM and 290 µM | 111 | – | 130 | – | 26.7 | – | 154 | 56.3 µM and 206 µM | 115 | 57.5 | 131 |
